From ChEMBL document CHEMBL1150912, “A new taxane diterpenoid from Taxus mairei” (J Nat Prod, 1998)
Converted amounts (≈) assume the structure as drawn. Starred links: 1 amine or outer side, 2 acyl side, 3 side chain; linkers in the order of their positions; H or OH if unused. Positions of bridges follow the written chain, without caps; N, C: chain ends. Non-standard residues stand in square brackets, D forms with d. Residues, ends and D or L forms follow the SMILES beside them. Chains are numbered I, II in the order given. Actinocin(1to9) = Cc1c2oc3c(C)ccc(C(=O)[*:2])c3nc-2c(C(=O)[*:1])c(N)c1=O; NMeV = CN[C@H](C(=O)O)C(C)C; Sar = CNCC(=O)O

Assays:
HeLa = experiment: Cytotoxicity against human HeLa cells after 3 days by methylene blue assay; type: functional, cell-based; details: 72 h
[1] = Cytotoxicity against human Hep3B cells after 3 days by methylene blue assay; type: functional, cell-based, Hep 3B2; details: 72 h

Structure (SMILES) | IC50 (HeLa) [µg/mL] | IC50 [1] [µg/mL]
Cc1c2oc3c(C)ccc(C(=O)N[C@@H]4C(=O)N[C@H](C(C)C)C(=O)N5CCC[C@H]5C(=O)N(C)CC(=O)N(C)[C@@H](C(C)C)C(=O)O[C@@H]4C)c3nc-2c(C(=O)N[C@@H]2C(=O)N[C@H](C(C)C)C(=O)N3CCC[C@H]3C(=O)N(C)CC(=O)N(C)[C@@H](C(C)C)C(=O)O[C@@H]2C)c(N)c1=O [DACTINOMYCIN] (I: T[dV]P[Sar][NMeV] / II: T[dV]P[Sar][NMeV]; ester I:1-I:C, II:1-II:C; linker I:N-II:N via Actinocin(1to9)) | 0.01 (≈ 0.00797 µM) | 0.01 (≈ 0.00797 µM)
CO[C@@]12[C@H](COC(N)=O)C3=C(C(=O)C(C)=C(N)C3=O)N1C[C@@H]1N[C@@H]12 [MITOMYCIN] | 0.01 (≈ 0.0299 µM) | 0.01 (≈ 0.0299 µM)
CC(=O)O[C@H]1[C@@H]2[C@]3(OC(C)=O)CO[C@@H]3C[C@H](O)[C@@]2(C)[C@@H](OC(=O)c2ccccc2)[C@H](O)C2=C(C)[C@@H](O)C[C@]21C(C)(C)O [TAXUMAIROL K] | 9.2 (≈ 15.6 µM) | 40 (≈ 68 µM)
